# Data taken from patent US9056843B2, “Trifluoromethyl-oxadiazole derivatives and their use in the treatment of disease” (NOVARTIS AG, priority 2011, dated 2015).
# How the values were obtained:
# Assay type in all cases: biochemical
# Human recombinant HDAC4 = Human recombinant HDAC4 (Homo sapiens (Human), UniProt P56524); assay: Test 2: HDAC4 assay (fluorogenic substrate, 5 μM acetyl-Gly-Ala-Lys(ε-trifluoroacetyl)-AMC); details: Test 2 (values without asterisk)
# Method: Test 2: HDAC4 Assay Description
# (§1) Control wells with HDAC4 only (positive control) and without HDAC4 (negative control) were included on the microplate. Bovine trypsin (4.5 μl of a 300 nM solution) was added and the plate incubated for additional 15 minutes at room temperature. The plate was placed in a fluorescence microplate reader, and read at an excitation wavelength of 360 nm and an emission wavelength of 450 nm with a 10 nm bandpath. Fluorescence values for all wells containing HDAC4 (positive control and wells with test compound) were corrected by subtracting negative control fluorescence values, and IC50 values were calculated by fitting the dose-response curves to a 4-parameter logistic function.
# [1] = molecular target: Human recombinant full length HDAC6 (Homo sapiens (Human), UniProt Q9UBN7); assay: Test 4: HDAC6 assay; details: Test 4; substrate 5 μM acetyl-Gly-Ala-Lys(acetyl)-AMC
# Human recombinant full length HDAC6, sequence (Q9UBN7 whole entry): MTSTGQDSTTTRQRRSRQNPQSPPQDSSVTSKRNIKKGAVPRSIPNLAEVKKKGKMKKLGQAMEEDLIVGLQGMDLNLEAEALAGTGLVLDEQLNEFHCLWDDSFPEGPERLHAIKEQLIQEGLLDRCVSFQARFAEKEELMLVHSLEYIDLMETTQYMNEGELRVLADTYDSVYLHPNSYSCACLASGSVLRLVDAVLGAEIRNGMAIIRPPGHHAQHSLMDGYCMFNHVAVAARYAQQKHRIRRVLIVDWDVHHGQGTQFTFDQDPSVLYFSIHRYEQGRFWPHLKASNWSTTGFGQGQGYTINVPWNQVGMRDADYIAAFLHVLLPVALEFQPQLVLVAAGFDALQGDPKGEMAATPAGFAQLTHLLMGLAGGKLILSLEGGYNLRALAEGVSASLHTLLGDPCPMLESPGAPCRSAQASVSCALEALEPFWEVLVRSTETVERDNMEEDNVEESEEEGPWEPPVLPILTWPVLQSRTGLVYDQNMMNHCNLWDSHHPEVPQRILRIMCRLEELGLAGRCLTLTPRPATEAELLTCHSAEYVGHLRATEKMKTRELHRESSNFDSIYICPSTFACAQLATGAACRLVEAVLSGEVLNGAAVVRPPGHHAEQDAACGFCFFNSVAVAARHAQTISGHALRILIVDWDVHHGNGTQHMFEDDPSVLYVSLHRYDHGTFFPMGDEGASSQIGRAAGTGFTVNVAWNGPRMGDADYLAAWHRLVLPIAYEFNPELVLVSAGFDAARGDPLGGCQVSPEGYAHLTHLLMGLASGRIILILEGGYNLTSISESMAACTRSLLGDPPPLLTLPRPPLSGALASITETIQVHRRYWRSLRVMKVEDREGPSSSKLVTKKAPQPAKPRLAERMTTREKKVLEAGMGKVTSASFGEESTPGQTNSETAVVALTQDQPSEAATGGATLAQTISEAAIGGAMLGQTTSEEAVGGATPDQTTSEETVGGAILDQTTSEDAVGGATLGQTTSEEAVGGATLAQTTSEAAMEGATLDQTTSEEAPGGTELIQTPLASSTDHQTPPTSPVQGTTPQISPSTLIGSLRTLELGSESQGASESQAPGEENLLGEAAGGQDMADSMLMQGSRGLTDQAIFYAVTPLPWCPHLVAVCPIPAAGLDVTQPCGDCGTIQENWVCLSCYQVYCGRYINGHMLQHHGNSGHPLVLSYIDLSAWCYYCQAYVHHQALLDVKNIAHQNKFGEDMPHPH
# Method: as §1
# Test 4: HDAC6 Assay Description
# A similar assay procedure as described in Test 2 was used for HDAC6. Human recombinant full length HDAC6 expressed in a baculovirus expression system was purchased from BPS BioSciences (San Diego, Calif., U.S.A.). The substrate used in the […] assay was 5 μM of acetyl-Gly-Ala-Lys(acetyl)-AMC.
# [2] = molecular target: Human recombinant full length HDAC1 (Homo sapiens (Human), UniProt Q13547); assay: Test 3: HDAC1 assay; details: substrate 5 μM acetyl-Gly-Ala-Lys(acetyl)-AMC
# Human recombinant full length HDAC1, sequence (Q13547 whole entry): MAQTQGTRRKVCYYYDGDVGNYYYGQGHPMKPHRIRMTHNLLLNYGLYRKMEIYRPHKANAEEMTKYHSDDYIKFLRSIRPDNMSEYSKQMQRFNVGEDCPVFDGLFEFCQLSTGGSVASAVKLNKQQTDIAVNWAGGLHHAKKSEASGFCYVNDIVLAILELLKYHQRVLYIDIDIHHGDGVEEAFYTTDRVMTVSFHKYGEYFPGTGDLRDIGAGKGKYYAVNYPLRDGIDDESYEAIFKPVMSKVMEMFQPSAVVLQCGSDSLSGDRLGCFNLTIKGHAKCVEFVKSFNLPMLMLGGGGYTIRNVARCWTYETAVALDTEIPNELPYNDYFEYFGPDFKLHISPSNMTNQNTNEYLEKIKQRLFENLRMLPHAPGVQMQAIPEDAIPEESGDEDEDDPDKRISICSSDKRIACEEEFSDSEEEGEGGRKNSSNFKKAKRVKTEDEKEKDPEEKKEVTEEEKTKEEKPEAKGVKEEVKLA
# Method: as §1
# Test 3: HDAC1 Assay Description
# A similar assay procedure as described in Test 2 was used for HDAC1. Human recombinant full length HDAC1 expressed in a baculovirus expression system was purchased from BPS BioSciences (San Diego, Calif., U.S.A.). The substrate used in the […] assay was 5 μM of acetyl-Gly-Ala-Lys(acetyl)-AMC.
# Human recombinant HDAC4, sequence (P56524 2-1084): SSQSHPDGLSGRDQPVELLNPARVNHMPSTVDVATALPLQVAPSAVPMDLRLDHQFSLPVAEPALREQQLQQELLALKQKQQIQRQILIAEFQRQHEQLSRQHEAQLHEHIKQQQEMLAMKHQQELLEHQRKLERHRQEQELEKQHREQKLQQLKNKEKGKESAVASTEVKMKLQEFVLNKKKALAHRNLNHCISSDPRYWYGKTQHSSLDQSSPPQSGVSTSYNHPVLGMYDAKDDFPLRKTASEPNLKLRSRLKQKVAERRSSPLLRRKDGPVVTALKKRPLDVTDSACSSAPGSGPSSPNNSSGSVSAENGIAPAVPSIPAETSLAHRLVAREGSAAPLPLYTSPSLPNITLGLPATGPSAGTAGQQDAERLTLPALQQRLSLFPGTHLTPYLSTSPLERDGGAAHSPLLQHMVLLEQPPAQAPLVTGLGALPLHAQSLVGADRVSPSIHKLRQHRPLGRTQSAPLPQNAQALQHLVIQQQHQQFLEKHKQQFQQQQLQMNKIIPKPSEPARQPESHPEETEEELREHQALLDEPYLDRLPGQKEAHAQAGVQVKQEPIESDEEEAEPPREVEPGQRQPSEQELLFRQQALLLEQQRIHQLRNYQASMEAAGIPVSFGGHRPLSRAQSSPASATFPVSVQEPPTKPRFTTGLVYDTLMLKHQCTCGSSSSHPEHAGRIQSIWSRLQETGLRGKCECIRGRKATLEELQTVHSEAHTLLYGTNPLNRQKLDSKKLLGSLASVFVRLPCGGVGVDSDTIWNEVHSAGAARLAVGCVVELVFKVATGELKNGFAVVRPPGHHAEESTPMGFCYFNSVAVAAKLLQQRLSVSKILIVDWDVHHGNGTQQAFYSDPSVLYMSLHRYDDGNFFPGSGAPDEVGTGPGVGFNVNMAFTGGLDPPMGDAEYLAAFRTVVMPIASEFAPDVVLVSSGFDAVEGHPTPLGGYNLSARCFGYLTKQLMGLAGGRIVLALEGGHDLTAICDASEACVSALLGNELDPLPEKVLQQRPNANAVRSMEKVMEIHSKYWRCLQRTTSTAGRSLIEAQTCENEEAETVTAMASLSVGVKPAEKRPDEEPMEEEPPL
SMILES,IC50 (Human recombinant HDAC4) [µM],IC50 [1] [µM],IC50 [2] [µM]
"O=C(NC1CCC1)c1ccc(-c2noc(C(F)(F)F)n2)cc1 [Example 25, N-cyclobutyl-4-(5-(trifluoromethyl)-1,2,4-oxadiazol-3-yl)benzamide]",0.47,6.5,> 10
"C[C@H](CN1CCOCC1)NC(=O)c1ccc(-c2noc(C(F)(F)F)n2)cc1F [Example 148, (R)-2-fluoro-N-(1-morpholinopropan-2-yl)-4-(5-(trifluoromethyl)-1,2,4-oxadiazol-3-yl)benzamide]",0.38,3.2,> 10
"C[C@H](CN1CCCC1)NC(=O)c1ccc(-c2noc(C(F)(F)F)n2)cc1F [Example 128, (R)-2-fluoro-N-(1-(pyrrolidin-1-yl)propan-2-yl)-4-(5-(trifluoromethyl)-1,2,4-oxadiazol-3-yl)benzamide]",0.026,4.5,> 10
"CC(=O)N1CCC(NC(=O)c2ccc(-c3noc(C(F)(F)F)n3)cc2)CC1 [Example 64, N-(1-acetylpiperidin-4-yl)-4-(5-(trifluoromethyl)-1,2,4-oxadiazol-3-yl)benzamide]",0.51,> 10,> 10
"COCCCNC(=O)c1ccc(-c2noc(C(F)(F)F)n2)cc1 [Example 21, N-(3-methoxyypropyl)-4-(5-(trifluoromethyl)-1,2,4-oxadiazol-3-yl)benzamide]",0.73,5.7,> 10
"CCCCNC(=O)Cc1ccc(-c2noc(C(F)(F)F)n2)cc1 [Example 6, N-butyl-2-(4-(5-(trifluoromethyl)-1,2,4-oxadiazol-3-yl)phenyl)acetamide]",0.63,3.2,> 10
"CN(C)CCCNS(=O)(=O)c1ccc(-c2noc(C(F)(F)F)n2)cc1 [Example 113, N-(3-(dimethylamino)propyl)-4-(5-(trifluoromethyl)-1,2,4-oxadiazol-3-yl)benzenesulfonamide]",0.3,6.2,> 10
"O=C(N[C@@H]1CCNC1)c1ccc(-c2noc(C(F)(F)F)n2)cc1F [Example 95, (R)-2-fluoro-N-(pyyrrolidin-3-yl)-4-(5-(trifluoromethyl)-1,2,4-oxadiazol-3-yl)benzamide]",0.16,6.9,> 10
"CCN(C)C[C@@H](C)NC(=O)c1ccc(-c2noc(C(F)(F)F)n2)cc1 [Example 136, (R)—N-(1-(ethyl(methyl)amino)propan-2-yl)-4-(5-(trifluoromethyl)-1,2,4-oxadiazol-3-yl)benzamide]",0.0089,> 10,> 10
"O=S(=O)(Nc1ccccc1F)c1ccc(-c2noc(C(F)(F)F)n2)cc1 [Example 111, N-(2-fluorophenyl)-4-(5-(trifluoromethyl)-1,2,4-oxadiazol-3-yl)benzenesulfonamide]",0.29,0.58,> 10
"O=S(=O)(Nc1cccc(Cl)c1)c1ccc(-c2noc(C(F)(F)F)n2)cc1 [Example 107, N-(3-chlorophenyl)-4-(5-(trifluoromethyl)-1,2,4-oxadiazol-3-yl)benzenesulfonamide]",0.79,0.46,6.2
"O=S(=O)(Nc1ccccc1Cl)c1ccc(-c2noc(C(F)(F)F)n2)cc1 [Example 104, N-(2-chlorophenyl)-4-(5-(trifluoromethyl)-1,2,4-oxadiazol-3-yl)benzenesulfonamide]",0.84,0.77,> 10
"O=C(c1ccc(-c2noc(C(F)(F)F)n2)cc1)N1CCN(c2ccccc2)CC1 [Example 42, (4-phenylpiperazin-1-yl)(4-(5-(trifluoromethyl)-1,2,4-oxadiazol-3-yl)phenyl)methanone]",4.2,> 10,> 10
"C[C@@H](CO)NC(=O)c1ccc(-c2noc(C(F)(F)F)n2)cc1 [Example 50, (S)—N-(1-hydroxyypropan-2-yl)-4-(5-(trifluoromethyl)-1,2,4-oxadiazol-3-yl)benzamide]",0.62,7.2,> 10
"CCC(CO)NC(=O)c1ccc(-c2noc(C(F)(F)F)n2)cc1 (stereo not drawn) [Example 56, N-(1-tetrahydroxy-2 H-butan-2-yl)-4-(5-(trifluoromethyl)-1,2,4-oxadiazol-3-yl)benzamide]",0.55,6.8,> 10
"CN1C(C)(C)CC(NC(=O)c2ccc(-c3noc(C(F)(F)F)n3)cc2)CC1(C)C [Example 65, N-(1,2,2,6,6-pentamethylpiperidin-4-yl)-4-(5-(trifluoromethyl)-1,2,4-oxadiazol-3-yl)benzamide]",0.24,4.6,> 10
"O=C(Cc1ccc(-c2noc(C(F)(F)F)n2)cc1)N1CCOCC1 [Example 9, 1-Morpholino-2-(4-(5-(trifluoromethyl)-1,2,4-oxadiazol-3-yl)phenyl)ethanone]",0.85,5.5,> 10
"CN(C)C[C@H](Cc1ccccc1)NC(=O)c1ccc(-c2noc(C(F)(F)F)n2)cc1 [Example 93, (S)—N-(1-(dimethylamino)-3-phenylpropan-2-yl)-4-(5-(trifluoromethyl)-1,2,4-oxadiazol-3-yl)benzamide]",0.19,4.9,> 10
"CCCN(CC)C[C@@H](C)NC(=O)c1ccc(-c2noc(C(F)(F)F)n2)cc1 [Example 145, (R)—N-(1-(ethyl(propyl)amino)propan-2-yl)-4-(5-(trifluoromethyl)-1,2,4-oxadiazol-3-yl)benzamide]",0.00075,3.7,2.4
"CC(CN(C)C)N(C)C(=O)c1ccc(-c2noc(C(F)(F)F)n2)cc1F (stereo not drawn) [Example 144, N-(1-(dimethylamino)propan-2-yl)-2-fluoro-N-methyl-4-(5-(trifluoromethyl)-1,2,4-oxadiazol-3-yl)benzamide]",0.18,> 10,> 10
"O=C(Nc1ccnc(Cl)c1)c1ccc(-c2noc(C(F)(F)F)n2)cc1 [Example 75, N-(2-chloropyridin-4-yl)-4-(5-(trifluoromethyl)-1,2,4-oxadiazol-3-yl)benzamide]",0.16,> 10,> 10
"CN(C)C(=O)Cc1ccc(-c2noc(C(F)(F)F)n2)cc1 [Example 4, N,N-Dimethyl-2-[4-(5-trifluoromethyl-[1,2,4]oxadiazol-3-yl)-phenyl]-acetamide]",0.62,7.9,> 10
"CC(C)(C)OC(=O)N1CCN(C(=O)c2ccc(-c3noc(C(F)(F)F)n3)cc2)CC1 [Example 55, Tert-butyl 4-(4-(5-(trifluoromethyl)-1,2,4-oxadiazol-3-yl)benzoyl)piperazine-1-carboxylate]",2.8,> 10,> 10
"O=C(NC1CCCNC1)c1ccc(-c2noc(C(F)(F)F)n2)cc1 (stereo not drawn) [Example 79, N-(piperidin-3-yl)-4-(5-(trifluoromethyl)-1,2,4-oxadiazol-3-yl)benzamide]",0.8,> 10,> 10
"Cc1cc(NC(=O)c2ccc(-c3noc(C(F)(F)F)n3)cc2F)cc(C)n1 [Example 90, N-(2,6-dimethylpyridin-4-yl)-2-fluoro-4-(5-(trifluoromethyl)-1,2,4-oxadiazol-3-yl)benzamide]",0.44,2.5,> 10
"NC1CCCCC1NC(=O)c1ccc(-c2noc(C(F)(F)F)n2)cc1 (stereo not drawn) [Example 77, N-(2-aminocyclohexyl)-4-(5-(trifluoromethyl)-1,2,4-oxadiazol-3-yl)benzamide]",0.35,> 10,> 10
"C[C@H](CN(C)C)NC(=O)c1ccc(-c2noc(C(F)(F)F)n2)cc1F [Example 88, (R)—N-(1-(dimethylamino)propan-2-yl)-2-fluoro-4-(5-(trifluoromethyl)-1,2,4-oxadiazol-3-yl)benzamide]",0.012,4.7,> 10
"CCN(CC)C[C@@H](C)NC(=O)c1ccc(-c2noc(C(F)(F)F)n2)cc1F [Example 126, (R)—N-(1-(diethylamino)propan-2-yl)-2-fluoro-4-(5-(trifluoromethyl)-1,2,4-oxadiazol-3-yl)benzamide]",0.0089,3.9,> 10
"O=C(NC1CCNCC1)c1ccc(-c2noc(C(F)(F)F)n2)cc1 [Example 76, N-(piperidin-4-yl)-4-(5-(trifluoromethyl)-1,2,4-oxadiazol-3-yl)benzamide]",0.15,3.9,> 10
"O=C(Nc1ccnc(O)c1)c1ccc(-c2noc(C(F)(F)F)n2)cc1 [Example 72, N-(2-hydroxypyridin-4-yl)-4-(5-(trifluoromethyl)-1,2,4-oxadiazol-3-yl)benzamide]",0.14,> 10,> 10
